Drawing on ChEMBL document CHEMBL3632579, “Hybrids from 4-anilinoquinazoline and hydroxamic acid as dual inhibitors of vascular endothelial growth factor receptor-2 and histone deacetylase” (Bioorg Med Chem Lett, 2015), this text covers IC50 for 18 compounds.

Where only a bound is given, the exact number is not on record here.

The IC50 is the midpoint of a concentration-inhibition curve.

Histone deacetylase 2, sequence (Q92769 whole entry): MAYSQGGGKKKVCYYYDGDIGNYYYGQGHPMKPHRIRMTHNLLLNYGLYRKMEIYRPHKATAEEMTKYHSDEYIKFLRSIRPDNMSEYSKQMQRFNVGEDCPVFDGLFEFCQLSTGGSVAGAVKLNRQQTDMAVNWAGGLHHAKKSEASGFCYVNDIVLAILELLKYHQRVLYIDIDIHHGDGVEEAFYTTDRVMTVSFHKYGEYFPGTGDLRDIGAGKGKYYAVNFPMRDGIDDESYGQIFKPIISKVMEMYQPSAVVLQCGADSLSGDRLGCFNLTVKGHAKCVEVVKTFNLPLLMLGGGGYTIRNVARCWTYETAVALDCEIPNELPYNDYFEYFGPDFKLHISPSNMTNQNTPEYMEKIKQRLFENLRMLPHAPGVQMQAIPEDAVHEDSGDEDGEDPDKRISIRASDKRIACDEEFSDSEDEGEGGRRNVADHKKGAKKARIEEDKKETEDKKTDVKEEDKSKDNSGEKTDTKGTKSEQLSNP
Histone deacetylase 1, sequence (Q13547 whole entry): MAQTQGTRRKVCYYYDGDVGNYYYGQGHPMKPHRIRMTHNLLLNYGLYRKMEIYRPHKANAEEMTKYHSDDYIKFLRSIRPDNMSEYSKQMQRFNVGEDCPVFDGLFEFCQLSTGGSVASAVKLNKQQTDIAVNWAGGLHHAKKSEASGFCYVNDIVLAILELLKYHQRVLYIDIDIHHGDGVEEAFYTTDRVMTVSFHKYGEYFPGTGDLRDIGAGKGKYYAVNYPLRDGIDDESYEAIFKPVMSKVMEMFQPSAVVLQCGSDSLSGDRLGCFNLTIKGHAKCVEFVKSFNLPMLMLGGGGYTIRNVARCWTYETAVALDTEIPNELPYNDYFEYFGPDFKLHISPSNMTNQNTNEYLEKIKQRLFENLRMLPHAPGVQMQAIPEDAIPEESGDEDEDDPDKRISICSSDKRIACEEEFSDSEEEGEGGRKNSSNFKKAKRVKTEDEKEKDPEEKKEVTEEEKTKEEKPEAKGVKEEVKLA

For one assay, the target named is Vascular endothelial growth factor receptor 2 (Homo sapiens, UniProt P35968). The assay can be described thus: Inhibition VEGFR2 (unknown origin) for 30 mins by ELISA.
Vascular endothelial growth factor receptor 2, sequence (P35968 whole entry): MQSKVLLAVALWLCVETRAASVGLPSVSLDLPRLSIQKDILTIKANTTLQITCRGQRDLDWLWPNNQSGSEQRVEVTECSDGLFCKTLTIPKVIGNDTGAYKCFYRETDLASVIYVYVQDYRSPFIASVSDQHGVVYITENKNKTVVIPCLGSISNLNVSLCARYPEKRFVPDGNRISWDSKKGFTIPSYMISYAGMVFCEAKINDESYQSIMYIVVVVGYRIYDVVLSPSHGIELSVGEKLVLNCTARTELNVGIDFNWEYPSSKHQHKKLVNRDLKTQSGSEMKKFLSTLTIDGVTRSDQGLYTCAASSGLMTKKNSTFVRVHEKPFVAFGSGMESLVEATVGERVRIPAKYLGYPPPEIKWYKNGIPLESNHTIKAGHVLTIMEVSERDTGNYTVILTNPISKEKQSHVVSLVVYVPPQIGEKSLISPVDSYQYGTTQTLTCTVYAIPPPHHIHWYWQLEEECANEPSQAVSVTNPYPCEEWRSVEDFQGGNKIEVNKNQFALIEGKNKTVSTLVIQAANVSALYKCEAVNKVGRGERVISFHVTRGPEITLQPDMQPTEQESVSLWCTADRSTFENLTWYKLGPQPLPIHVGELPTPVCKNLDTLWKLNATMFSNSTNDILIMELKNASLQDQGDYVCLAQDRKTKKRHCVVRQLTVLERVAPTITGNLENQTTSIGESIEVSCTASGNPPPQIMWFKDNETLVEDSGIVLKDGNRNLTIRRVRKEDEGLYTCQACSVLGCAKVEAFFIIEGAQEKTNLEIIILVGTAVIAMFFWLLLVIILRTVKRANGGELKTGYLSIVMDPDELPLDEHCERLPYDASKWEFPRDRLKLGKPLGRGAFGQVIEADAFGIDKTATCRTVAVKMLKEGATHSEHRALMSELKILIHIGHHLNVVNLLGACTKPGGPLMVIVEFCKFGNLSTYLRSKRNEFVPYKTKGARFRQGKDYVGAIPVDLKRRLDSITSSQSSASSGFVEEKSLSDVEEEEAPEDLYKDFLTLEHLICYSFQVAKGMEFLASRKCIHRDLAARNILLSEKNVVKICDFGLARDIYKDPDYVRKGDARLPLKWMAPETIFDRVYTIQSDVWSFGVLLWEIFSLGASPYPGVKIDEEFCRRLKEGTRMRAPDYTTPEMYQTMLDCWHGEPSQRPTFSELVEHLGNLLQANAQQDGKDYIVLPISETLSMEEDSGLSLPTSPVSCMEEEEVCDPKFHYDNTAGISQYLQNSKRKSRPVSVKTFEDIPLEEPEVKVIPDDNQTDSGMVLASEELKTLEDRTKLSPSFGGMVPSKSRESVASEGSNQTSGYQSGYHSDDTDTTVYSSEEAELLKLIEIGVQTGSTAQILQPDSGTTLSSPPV
Conditions: not given
`COc1cc2ncnc(Nc3cccc(Cl)c3)c2cc1OCCC(=O)NO` gave an IC50 of 476 nM.
The compound `COc1cc2ncnc(Nc3cccc(Cl)c3)c2cc1OCCCC(=O)NO` yielded a half-maximal inhibitory concentration (IC50) of 352 nM.
The compound `COc1cc2ncnc(Nc3cccc(Cl)c3)c2cc1OCCCCC(=O)NO` returned a 50% inhibitory concentration (IC50) of 613 nM.
`COc1cc2ncnc(Nc3cccc(Cl)c3)c2cc1OCCCCCC(=O)NO`: the midpoint of inhibition, the IC50, lay at 501 nM.
As to `COc1cc2ncnc(Nc3cccc(Br)c3)c2cc1OCCC(=O)NO`, the half-maximal inhibitory concentration (IC50) was 625 nM.
Same read-out and setting: as for `COc1cc2ncnc(Nc3cccc(Br)c3)c2cc1OCCCC(=O)NO`, the figure is 434 nM; as for `COc1cc2ncnc(Nc3cccc(Br)c3)c2cc1OCCCCC(=O)NO`, 415 nM.
`COc1cc2ncnc(Nc3cccc(Br)c3)c2cc1OCCCCCC(=O)NO` displayed a half-maximal inhibitory concentration (IC50) of 462 nM.
Still for that read-out and setting: the same measure for `COc1cc2ncnc(Nc3ccc(Cl)cc3Cl)c2cc1OCCC(=O)NO`: 370 nM.
`COc1cc2ncnc(Nc3ccc(Cl)cc3Cl)c2cc1OCCCC(=O)NO`: the concentration for half-maximal inhibition (IC50) came out at 138 nM.
On the same count and under the same terms, the same measure for `COc1cc2ncnc(Nc3ccc(Cl)cc3Cl)c2cc1OCCCCC(=O)NO`: 115 nM; for `COc1cc2ncnc(Nc3ccc(Cl)cc3Cl)c2cc1OCCCCCC(=O)NO`: 84 nM.
Still for that read-out and setting: the same measure for `COc1cc2ncnc(Nc3cc(Cl)ccc3Cl)c2cc1OCCC(=O)NO`: 1260 nM; for `COc1cc2ncnc(Nc3cc(Cl)ccc3Cl)c2cc1OCCCC(=O)NO`: 2140 nM.
The same measure, in the same setting: the same measure for `COc1cc2ncnc(Nc3cc(Cl)ccc3Cl)c2cc1OCCCCC(=O)NO`: 5200 nM; for `COc1cc2ncnc(Nc3cc(Cl)ccc3Cl)c2cc1OCCCCCC(=O)NO`: 2450 nM.
Turning to `O=C(CCCCCCC(=O)Nc1ccccc1)NO` [VORINOSTAT], the 50% inhibitory concentration (IC50) is > 10000 nM.

A further assay addresses Histone deacetylase. The assay can be described thus: Inhibition of human HDAC in HeLa cell nuclear extract by fluorometric assay using Fluor de Lys substrate. The assay is classed as protein assay.
Conditions: not given
For the compound `COc1cc2ncnc(Nc3cccc(Cl)c3)c2cc1OCCC(=O)NO`, the IC50 was found to be 645 nM.
On the same count and under the same terms, as for `COc1cc2ncnc(Nc3cccc(Cl)c3)c2cc1OCCCC(=O)NO`, the figure is 121 nM; as for `COc1cc2ncnc(Nc3cccc(Cl)c3)c2cc1OCCCCC(=O)NO`, 17 nM; as for `COc1cc2ncnc(Nc3cccc(Cl)c3)c2cc1OCCCCCC(=O)NO`, 5.4 nM.
On the same count and under the same terms, the same measure for `COc1cc2ncnc(Nc3cccc(Br)c3)c2cc1OCCC(=O)NO`: 531 nM.
Same read-out and setting: as for `COc1cc2ncnc(Nc3cccc(Br)c3)c2cc1OCCCC(=O)NO`, the figure is 97 nM.
Regarding `COc1cc2ncnc(Nc3cccc(Br)c3)c2cc1OCCCCC(=O)NO`, the half-maximal inhibitory concentration (IC50) is 15 nM.
The same measure, in the same setting: as for `COc1cc2ncnc(Nc3cccc(Br)c3)c2cc1OCCCCCC(=O)NO`, the figure is 4.5 nM; as for `COc1cc2ncnc(Nc3ccc(Cl)cc3Cl)c2cc1OCCC(=O)NO`, 215 nM; as for `COc1cc2ncnc(Nc3ccc(Cl)cc3Cl)c2cc1OCCCC(=O)NO`, 86 nM.
On to `COc1cc2ncnc(Nc3ccc(Cl)cc3Cl)c2cc1OCCCCC(=O)NO`, for which the IC50 is 14 nM.
On the same count and under the same terms, as for `COc1cc2ncnc(Nc3ccc(Cl)cc3Cl)c2cc1OCCCCCC(=O)NO`, the figure is 2.8 nM.
Same read-out and setting: as for `COc1cc2ncnc(Nc3cc(Cl)ccc3Cl)c2cc1OCCC(=O)NO`, the figure is 348 nM; as for `COc1cc2ncnc(Nc3cc(Cl)ccc3Cl)c2cc1OCCCC(=O)NO`, 57 nM.
On the same count and under the same terms, as for `COc1cc2ncnc(Nc3cc(Cl)ccc3Cl)c2cc1OCCCCC(=O)NO`, the figure is 21 nM; as for `COc1cc2ncnc(Nc3cc(Cl)ccc3Cl)c2cc1OCCCCCC(=O)NO`, 8.4 nM.
Take `COc1cc2/c(=N/c3ccc(Br)cc3F)nc[nH]c2cc1OCC1CCN(C)CC1` [VANDETANIB]: the concentration for half-maximal inhibition (IC50) is > 10000 nM.

A further assay has as its system MCF7. The assay can be described thus: Antiproliferative activity against human MCF7 cells after 48 hrs by MTT assay. The assay is classed as functional, cell-based. The following applies: MCF7, 48 h. (In general: Formazan colour is commonly taken as a measure of viable cells.)
Take `COc1cc2ncnc(Nc3cccc(Cl)c3)c2cc1OCCC(=O)NO`: the half-inhibitory concentration (IC50) was > 100000 nM.
Same read-out and setting: as for `COc1cc2ncnc(Nc3cccc(Cl)c3)c2cc1OCCCC(=O)NO`, the figure is 65200 nM.
The same measure, in the same setting: the same measure for `COc1cc2ncnc(Nc3cccc(Cl)c3)c2cc1OCCCCC(=O)NO`: 8600 nM; for `COc1cc2ncnc(Nc3cccc(Cl)c3)c2cc1OCCCCCC(=O)NO`: 3200 nM.
On to `COc1cc2ncnc(Nc3cccc(Br)c3)c2cc1OCCC(=O)NO`, for which the 50% inhibitory concentration (IC50) was > 100000 nM.
Same read-out and setting: as for `COc1cc2ncnc(Nc3cccc(Br)c3)c2cc1OCCCC(=O)NO`, the figure is 68400 nM; as for `COc1cc2ncnc(Nc3cccc(Br)c3)c2cc1OCCCCC(=O)NO`, 8500 nM; as for `COc1cc2ncnc(Nc3cccc(Br)c3)c2cc1OCCCCCC(=O)NO`, 2800 nM.
The compound `COc1cc2ncnc(Nc3ccc(Cl)cc3Cl)c2cc1OCCC(=O)NO` gave a concentration for half-maximal inhibition (IC50) of 95000 nM.
Take `COc1cc2ncnc(Nc3ccc(Cl)cc3Cl)c2cc1OCCCC(=O)NO`: 56800 nM corresponded to half-maximal inhibition (IC50).
On the same count and under the same terms, the same measure for `COc1cc2ncnc(Nc3ccc(Cl)cc3Cl)c2cc1OCCCCC(=O)NO`: 6400 nM; for `COc1cc2ncnc(Nc3ccc(Cl)cc3Cl)c2cc1OCCCCCC(=O)NO`: 1200 nM.
Still for that read-out and setting: as for `COc1cc2ncnc(Nc3cc(Cl)ccc3Cl)c2cc1OCCC(=O)NO`, the figure is > 100000 nM; as for `COc1cc2ncnc(Nc3cc(Cl)ccc3Cl)c2cc1OCCCC(=O)NO`, 44500 nM; as for `COc1cc2ncnc(Nc3cc(Cl)ccc3Cl)c2cc1OCCCCC(=O)NO`, 13700 nM.
On to `COc1cc2ncnc(Nc3cc(Cl)ccc3Cl)c2cc1OCCCCCC(=O)NO`, for which the IC50 stood at 4000 nM.
Still for that read-out and setting: the same measure for `COc1cc2/c(=N/c3ccc(Br)cc3F)nc[nH]c2cc1OCC1CCN(C)CC1` [VANDETANIB]: 18500 nM.

A further assay addresses Histone deacetylase 1 (Homo sapiens, UniProt Q13547). The experiment in a line: Inhibition of human recombinant HDAC1 by fluorometric assay using Fluor de Lys substrate.
Conditions: not given
For `COc1cc2ncnc(Nc3ccc(Cl)cc3Cl)c2cc1OCCCCCC(=O)NO`, the IC50 came to 3.5 nM.

A further assay concerns the target Histone deacetylase 2 (Homo sapiens, UniProt Q92769). The experiment in a line: Inhibition of human recombinant HDAC2 by fluorometric assay using Fluor de Lys substrate.
Conditions: not given
For the compound `COc1cc2ncnc(Nc3ccc(Cl)cc3Cl)c2cc1OCCCCCC(=O)NO`, the half-maximal inhibitory concentration (IC50) amounted to 6.8 nM.

The next assay addresses T1, Protein deacetylase HDAC6 (Homo sapiens, UniProt Q9UBN7).
T1 sequence (Q9UBN7 whole entry): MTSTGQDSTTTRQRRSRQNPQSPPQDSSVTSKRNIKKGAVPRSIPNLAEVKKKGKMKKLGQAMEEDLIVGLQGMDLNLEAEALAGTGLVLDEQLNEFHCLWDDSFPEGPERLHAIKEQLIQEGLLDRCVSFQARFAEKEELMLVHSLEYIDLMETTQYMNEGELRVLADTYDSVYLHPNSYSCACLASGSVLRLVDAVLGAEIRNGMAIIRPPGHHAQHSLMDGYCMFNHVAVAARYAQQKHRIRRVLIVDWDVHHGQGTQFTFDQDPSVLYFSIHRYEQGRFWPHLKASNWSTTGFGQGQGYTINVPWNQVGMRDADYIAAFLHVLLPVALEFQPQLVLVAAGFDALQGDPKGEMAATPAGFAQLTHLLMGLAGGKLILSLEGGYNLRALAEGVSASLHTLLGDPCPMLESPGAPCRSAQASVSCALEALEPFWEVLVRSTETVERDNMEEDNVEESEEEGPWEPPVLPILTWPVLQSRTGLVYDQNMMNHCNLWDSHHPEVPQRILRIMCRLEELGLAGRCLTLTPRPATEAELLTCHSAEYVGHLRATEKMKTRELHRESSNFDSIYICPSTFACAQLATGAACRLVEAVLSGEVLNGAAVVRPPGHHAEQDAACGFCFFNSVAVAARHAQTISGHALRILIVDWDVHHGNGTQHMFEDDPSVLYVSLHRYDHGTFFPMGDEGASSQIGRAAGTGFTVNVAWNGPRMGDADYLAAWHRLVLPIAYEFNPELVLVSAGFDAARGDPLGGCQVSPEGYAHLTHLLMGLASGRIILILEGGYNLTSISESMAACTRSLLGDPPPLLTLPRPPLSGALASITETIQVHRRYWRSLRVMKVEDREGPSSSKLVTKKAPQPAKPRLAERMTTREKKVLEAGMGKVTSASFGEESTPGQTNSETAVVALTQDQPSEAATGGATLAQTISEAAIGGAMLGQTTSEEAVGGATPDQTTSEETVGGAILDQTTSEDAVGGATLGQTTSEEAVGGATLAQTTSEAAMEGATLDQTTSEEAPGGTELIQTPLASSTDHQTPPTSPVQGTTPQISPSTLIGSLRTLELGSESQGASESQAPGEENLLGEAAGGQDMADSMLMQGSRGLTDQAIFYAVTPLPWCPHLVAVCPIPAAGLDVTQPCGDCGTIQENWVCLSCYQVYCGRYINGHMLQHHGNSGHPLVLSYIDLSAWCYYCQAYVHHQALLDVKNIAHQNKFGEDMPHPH
The assay can be described thus: Inhibition of human recombinant HDAC6 by fluorometric assay using Fluor de Lys substrate.
Conditions: not given
Turning to `COc1cc2ncnc(Nc3ccc(Cl)cc3Cl)c2cc1OCCCCCC(=O)NO`, the half-inhibitory concentration (IC50) was 25.5 nM.

The target in a further assay is T2, Histone deacetylase 8 (Homo sapiens, UniProt Q9BY41).
T2 sequence (Q9BY41 whole entry): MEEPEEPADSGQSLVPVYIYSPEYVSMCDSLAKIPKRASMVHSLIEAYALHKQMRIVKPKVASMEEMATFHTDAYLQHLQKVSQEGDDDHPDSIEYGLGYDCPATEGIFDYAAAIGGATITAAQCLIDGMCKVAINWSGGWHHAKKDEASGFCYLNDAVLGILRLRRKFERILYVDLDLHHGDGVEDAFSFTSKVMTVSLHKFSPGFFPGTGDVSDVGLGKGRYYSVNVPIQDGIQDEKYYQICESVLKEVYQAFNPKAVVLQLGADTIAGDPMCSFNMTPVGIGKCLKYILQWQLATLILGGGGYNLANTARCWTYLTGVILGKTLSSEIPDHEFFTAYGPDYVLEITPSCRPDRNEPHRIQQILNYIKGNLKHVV
The experiment in a line: Inhibition of human recombinant HDAC8 by fluorometric assay using Fluor de Lys substrate.
Conditions: not given
Take `COc1cc2ncnc(Nc3ccc(Cl)cc3Cl)c2cc1OCCCCCC(=O)NO`: the IC50 was 5.2 nM.

In the next assay the test system is HepG2. The experiment in a line: Antiproliferative activity against human HepG2 cells after 48 hrs by MTT assay. Type of assay: functional, cell-based. The conditions noted are these: HepG2, 48 h.
The compound `COc1cc2ncnc(Nc3ccc(Cl)cc3Cl)c2cc1OCCCCCC(=O)NO` gave an IC50 of 2700 nM.

A further assay concerns A549. The assay can be described thus: Antiproliferative activity against human A549 cells after 48 hrs by MTT assay. The assay is classed as functional, cell-based. The following applies: A549, 48 h.
`COc1cc2ncnc(Nc3ccc(Cl)cc3Cl)c2cc1OCCCCCC(=O)NO` showed an IC50 of 5400 nM.

For the next assay, the system named is HCT-116. The experiment in a line: Antiproliferative activity against human HCT116 cells after 48 hrs by MTT assay. Type of assay: functional, cell-based. The conditions noted are these: HCT-116, 48 h.
In turn, `COc1cc2ncnc(Nc3ccc(Cl)cc3Cl)c2cc1OCCCCCC(=O)NO` displayed an IC50 of 1800 nM.
